The values that follow come from paper PMC5458272.

The target of assay [1] is T1, Aurora-A/TPX2 complex (Homo sapiens, UniProt O14965).
T1 construct: His-tag (N); host or cells: Escherichia coli BL21(DE3)
T1 sequence (O14965 1-403): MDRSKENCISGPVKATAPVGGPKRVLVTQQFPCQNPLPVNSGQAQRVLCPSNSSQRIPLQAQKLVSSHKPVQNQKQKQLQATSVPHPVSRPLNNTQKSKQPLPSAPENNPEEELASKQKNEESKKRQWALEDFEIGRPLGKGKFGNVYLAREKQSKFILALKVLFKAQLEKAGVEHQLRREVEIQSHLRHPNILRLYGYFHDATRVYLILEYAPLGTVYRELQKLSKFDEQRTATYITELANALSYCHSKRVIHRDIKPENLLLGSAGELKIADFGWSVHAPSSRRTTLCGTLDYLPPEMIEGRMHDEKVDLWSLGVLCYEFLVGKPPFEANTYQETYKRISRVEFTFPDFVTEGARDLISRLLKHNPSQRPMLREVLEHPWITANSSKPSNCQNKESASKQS
As to the kind of experiment: SPR competition between GST-TPX2-1-43 and compounds for Aurora-A binding. The following applies: for Interference with TPX2 binding to Aurora-A (in words): SPR competition.
Procedure: (§4) TPX2 in running buffer was injected at different concentrations (ranging from 10 nM to 5 μM), in order to determine the affinity constant of the interaction between Aurora-A and TPX2 and the conditions of the competition experiments (flow rate= 30 μl/min). […] IC50 were calculated on the basis of the RU value at each inhibitor concentration (10 sec after the end of each association sensorgram) since TPX2 binding signal decreases by increasing inhibitor concentration. Both rapid binding and rapid dissociation of inhibitors were subtracted from the sensorgrams.

Assay [2] concerns the target T2, Aurora-A (Homo sapiens, UniProt O14965).
T2 sequence (O14965 1-403): T1 sequence (O14965 1-403)
The assay is described as follows: FastStep SPR direct binding of compounds to immobilized Aurora-A. The arrangement: His-tag (N); host or cells: Escherichia coli BL21(DE3). The following applies: for Kd: SPR, Aurora-A immobilized on COOH5 sensorchip, affinities from Scatchard plots, ± standard error of best-fit, low affinity given as >100 μM. How it is done:
We evaluated the interaction of the selected compounds with Aurora-A immobilized on a COOH5 sensorchip by FastStep Surface Plasmon Resonance (SPR) experiments. Sensorgrams were obtained using Aurora-A as ligand and injecting increasing concentrations of the inhibitors (see Materials and Methods) as analytes in running buffer (Figure 3A).
SPR experiments were carried out using a SensiQ Pioneer apparatus. The sensor chip (COOH5, with a hydrogel-based sensing surface endowed with high binding capacity) was chemically activated by a 35 μl injection of a 1:1 mixture of 200 mM N-ethyl-N’-(3-[…]) carbodiimide and 50 mM N-hydroxysuccinimide at a flow rate of 5 μl/min. Aurora-A was immobilized on the activated sensor chip via amine coupling. The immobilization was carried out in 20 mM sodium acetate at pH 4.5; the remaining ester groups were blocked by injecting 1 M ethanolamine hydrochloride (35 μl).
Compounds for testing were purchased from Ambinter (Paris, France). […] Compounds were injected onto the sensor chip at a constant flow in FastStep injection experiments, in order to rapidly obtain information on the binding of the analyte at different concentrations, with a single dissociation phase. […] At least two independent experiments were performed and averaged for each series of injections. The interaction of immobilized Aurora-A ligand with the inhibitor compounds was detected through mass concentration-dependent changes in the refractive index on the sensor chip surface, expressed as RUs.

In assay [3] the test system is U2OS osteosarcoma cell line. The assay is described as follows: Immunofluorescence of mitotic spindle structure in synchronized U2OS cells. It counts as cell-based, human. The following applies: 10 μM, added 6 hours after thymidine release, fixed after further 4 hours, alpha-tubulin staining. How it is done: (§1) We next wished to examine how compounds displaying inhibitory activity on the Aurora-A/TPX2 complex formation in vitro affected mitosis in human cells. […] C20 and C23 were tested in the U2OS osteosarcoma cell line, in which we previously characterized significant mitotic defects after Alisertib-dependent Aurora-A inhibition. Briefly, U20S cells were arrested at the G1/S transition by thymidine treatment, released in fresh medium to progress through S and G2 phases, then treated with either C20 or C23 (10 μM) 6 hours after thymidine release (Figure 6A). […] Defects were scored in prometa- and metaphases and included completely disorganized spindles (Figure 6A, second panel), or spindles with supernumerary poles (Figure 6A, third and fourth panel), as typically observed under impaired Aurora-A function. To directly assess the extent of Aurora-A activation we measured Aurora-A auto-phosphorylation on Thr 288. […]
(§2) The human U2OS osteosarcoma cell line (ATCC: HTB-96) was grown at 37°C in a 5% CO2 atmosphere in DMEM, supplemented with 10% fetal bovine serum. […] After further 4 hours cells were harvested and analyzed. […]
(§3) Cells grown on poly-lysine-coated coverslips were fixed with cold methanol, 6 min at -20°C. […] Samples were analyzed using a Nikon Eclipse 90i microscope equipped with a Qicam Fast 1394 CCD camera (QImaging). […]

Assay [4] concerns p-Thr288-Aurora-A. The assay is described as follows: Immunofluorescence of Aurora-A auto-phosphorylation on Thr 288 in U2OS prometaphases. Format: cell-based, human. The following applies: thymidine arrest/release, monastrol added 2 hours before fixation. How it is done: as §1, §2, §3
Assay [5] has as its target T2, Aurora-A. As to the kind of experiment: SPR binding of GST-TPX2-1-43 or GST alone to immobilized Aurora-A. The following applies: GST alone as control analyte. (In general: SPR reads the build-up and loss of mass on a sensor chip optically.)
Procedure: as §4

Where two headings read alike, the source gives them in different places.

Take `COc1cc(Nc2ncc3c(n2)-c2ccc(Cl)cc2C(c2c(F)cccc2OC)=NC3)ccc1C(=O)O` [Alisertib, reference compound]: the “Interference with TPX2 binding to Aurora-A (in words)” value (“Interference with TPX2 binding” below) in assay [1] (500 nM GST-TPX2-1-43, Supplementary Figure 2) is recorded as “does not interfere with TPX2 binding to Aurora-A”; in assay [1] (1 μM GST-TPX2-1-43) it was “does not compete with TPX2 binding”.
For the compound `O=C1Nc2ccccc2/C1=N\NC(=O)c1cccc2ccccc12` [C01], the dissociation constant Kd (as a rule, a measure of binding affinity in units of concentration) in assay [2] (Kd) is > 100 µM.
In the case of `O=C1Nc2ccccc2/C1=N/NC(=O)c1ccc2ccccc2n1` [C02], the Kd in assay [2] (read-out: Kd) amounted to 42 ± 9 µM. Besides, in assay [1] (read-out: IC50), the IC50 – broadly, the concentration that inhibits the measured activity by half – was found to be 40 ± 10 µM.
In the case of `O=C(Nc1cccc2ncccc12)c1ccc2c(c1)OCCCO2` [C03], the Kd in assay [2] (Kd) was > 100 µM.
The compound `O=C1Nc2ccccc2/C1=N\NC(=O)C1COc2ccccc2O1` (centres unmarked) [C04] returned a Kd in assay [2] (Kd) of 100 µM.
Regarding `O=C1Nc2ccc(F)cc2/C1=N\NC(=O)c1ccc2c(c1)OCO2` [C05], the Kd in assay [2] (Kd) is > 100 µM.
On the same count and under the same terms, for `O=C1Cc2cc(S(=O)(=O)Nc3ccccc3C(=O)O)ccc2N1` [C06] the value was > 100 µM; for `Cc1ccc2c(c1)/C(=N\NC(=O)C1COc3ccccc3O1)C(=O)N2` (centres unmarked) [C07], > 100 µM; for `CN1/C(=C\c2cccc3[nH]ccc23)C(=O)c2ccccc2S1(=O)=O` [C08], 80 ± 30 µM.
On the same count and under the same terms, the result for `Cc1oc2cc(OCC(N)=O)ccc2c(=O)c1-c1ccc(Cl)cc1` [C09] reads 80 ± 15 µM; that for `CNC(=O)C1CN(C(=O)c2ccc3ccccc3c2)c2ccccc2O1` (centres unmarked) [C10], > 100 µM; that for `O=C(NCC1Cc2cccc(-c3ccncc3)c2O1)c1ccccc1F` (centres unmarked) [C11], > 100 µM.
Turning to `O=C(Nc1ccc2c(c1)CN(C(=O)c1ccco1)CC2)c1ccc(-c2ccccc2)cc1` [C12], the Kd in assay [2] (Kd) was > 100 µM. Besides, in assay [2] (SPR direct binding), the “Aurora-A binding (in words)” value is recorded as “no Aurora-A binding properties”. The IC50 in assay [1] was > 100 µM. Also, in assay [1] (1 μM GST-TPX2-1-43), the “Interference with TPX2 binding” value is recorded as “did not influence the Aurora-A/TPX2 complex formation”.
As for `CCn1c(NC(=O)CCn2c(-c3ccc(OC)cc3)n[nH]c2=S)nc2ccccc21` [C13], the Kd in assay [2] (Kd) was > 100 µM.
Consider `O=C(NCCOc1ccc(-c2ccc(F)cc2)nn1)C1c2ccccc2Oc2ccccc21` [C14], for which the equilibrium dissociation constant (Kd) in assay [2] (Kd) is > 100 µM.
`CC1=NC2=C(C(=O)CC(c3ccccc3)C2)C(c2ccccn2)C1C(=O)Nc1ccc(F)cc1` (centres unmarked) [C15]: the Kd in assay [2] (Kd) is > 100 µM.
Same read-out and setting: for `CC1=C(C(=O)Nc2cccc(F)c2)[C@H](c2ccccn2)C2=C(C[C@H](c3ccccc3)CC2=O)N1` [C16] the value was > 100 µM.
Still for that read-out and setting: for `CC1=NC2=C(C(=O)CC(c3cccs3)C2)C(c2ccccn2)C1C(=O)Nc1ccc(F)cc1` (centres unmarked) [C17] the value was > 100 µM.
Take `CC1=NC2=C(C(=O)CC(c3cccs3)C2)C(c2ccccn2)C1C(=O)Nc1cccc(F)c1` (centres unmarked) [C18]: in assay [2] (read-out: Kd), the Kd is > 100 µM.
On to `COc1cc(/C=C2\C(=O)Nc3ccccc32)c(Br)cc1OCc1ccccc1C#N` [C19], for which the Kd in assay [2] (Kd) was > 100 µM.
On to `COc1cc(NC(=S)NC(=O)c2cccc(F)c2)ccc1NC(=O)c1cc2ccccc2o1` [C20], for which the Kd in assay [2] (Kd) turned out to be 30 ± 15 µM. This compound also had an IC50 in assay [1] of 20 ± 10 µM. In addition, the “Mitotic spindle defects in prometa- and metaphases” value in assay [3] was “aberrant mitotic spindles”. Further, in assay [4], the “p-Thr288-Aurora-A signal compared to controls” value is on record as “highly significant reduction”.
Take `O=C(COc1ccc2[nH]c3ccccc3c(=O)c2c1)N1c2ccccc2OCC1c1ccccc1` (centres unmarked) [C21]: the Kd in assay [2] (Kd) was > 100 µM.
As for `CC1=C(/C(O)=N/c2ccc(F)cc2F)[C@H](c2cccnc2)C2=C(C[C@@H](c3ccccc3)CC2=O)N1` [C22], the Kd in assay [2] (read-out: Kd) was determined as 15 ± 6 µM. For the same compound, the “Interference with TPX2 binding” value in assay [1] (1 μM GST-TPX2-1-43) is listed as “did not interfere with the formation of the Aurora-A/TPX2 complex”. For the same compound, the IC50 in assay [1] (read-out: IC50) is > 100 µM.
`COc1ccc(CNC(=O)C(C)Oc2ccc3c(c2)c2ccnc4c5ccccc5c(=O)n3c24)cc1` (centres unmarked) [C23]: in assay [2] (read-out: Kd), the dissociation constant Kd is 12 ± 5 µM. The IC50 in assay [1] (read-out: IC50) worked out at 30 ± 8 µM. Besides, the “Mitotic spindle defects in prometa- and metaphases” value in assay [3] is recorded as “aberrant mitotic spindles”. The “p-Thr288-Aurora-A signal compared to controls” value in assay [4] is recorded as “highly significant reduction”.
Regarding `COc1ccc(-c2n[nH]c(=S)n2CCC(=O)Nc2ccc3nc(N4CCCC4)sc3c2)cc1` [C24], the Kd in assay [2] (Kd) is > 100 µM.
In the case of `CC(Oc1ccc2c(c1)c1ccnc3c4ccccc4c(=O)n2c13)C(=O)NCc1ccc2c(c1)OCO2` (centres unmarked) [C25], the Kd in assay [2] (read-out: Kd) was 12 ± 6 µM. For the same compound, in assay [1] (read-out: IC50), the IC50 stood at 40 ± 10 µM.
In the case of “GST: Recombinant GST protein alone, from Sigma (SRP5348), control analyte”, the dissociation constant Kd in assay [5] was > 5 µM.
